According to article PMC7617869, “Molecular glues that inhibit deubiquitylase activity and inflammatory signaling” (Nature Structural & Molecular Biology, 2025):
Where “and” joins values, the source holds several entries; their conditions need not be identical. Equal entries are not always repeated.

Tests used:
[1] = target: T1, BRISC (FL) (Homo sapiens, UniProt P46736+Q15018+Q9NXR7); assay: Native MS of BRISC with inhibitor; conditions: 10 μM BRISC, 1 mM inhibitor
T1 construct: full-length BRISC (FL), ARISC (FL); made in house; host or cells: Spodoptera frugiperda Sf9 insect cells (MultiBac)
Method: Samples were buffer-exchanged into 500 mM ammonium acetate using Zeba Spin (7-kDa molecular weight cutoff) desalting columns (Thermo Fisher Scientific). Samples were analyzed by nanoelectrospray ionization MS using a quadrupole orbitrap MS (Q-Exactive UHMR, Thermo Fisher Scientific) using gold–palladium-coated nanospray tips prepared in-house. The MS instrument was operated in positive ion mode using a capillary voltage of 1.5 kV, capillary temperature of 250 °C and S-lens radiofrequency of 200 V. In-source trapping was used with a desolvation voltage of −200 V for 4 μs. Extended trapping was not used. The quadrupole mass range was 2,000–15,000 m/z. Nitrogen gas was used in the higher-energy collisional dissociation cell with a trap gas pressure setting of 5. Orbitrap resolution was 6,250 and detector m/z optimization was low. Five microscans were averaged and an automatic gain control target of 2 × 10^5 was used. Mass calibration was performed by a separate injection of sodium iodide at a concentration of 2 μg μl^−1. Data processing was performed using QualBrowser (version 4.2.28.14) and deconvoluted using UniDec[82].

[2] = tested on: AMSH* (a STAM2–AMSH fusion); assay: AMSH* IQF DUB activity assay; format: biochemical; conditions: for Normalised V0: Fig. 1e, AMSH*
Method: (§1) IQF assays were performed in DUB reaction buffer containing 50 mM HEPES–NaOH pH 7.0, 100 mM NaCl, 0.1 mg ml^−1 BSA, 1 mM DTT and 0.03% v/v Brij-35. […] The final concentration of BRISC WT, all BRISC mutants, HsBRISCΔLoop, MmBRISC and DrBRISCΔNΔC was 1 nM. Other enzymes were tested at the following concentrations: 5 nM ARISC (FL), 10 nM CfBRISCΔNΔC, 250 nM AMSH* (ref. [43]), 500 nM USP2 and 1 μM trypsin (Sigma, 9002-07-7). For Michaelis–Menten experiments, 1 nM BRISC with 0–1 μM IQF K63-linked diubiquitin substrate was used. Michaelis–Menten analyses and Lineweaver–Burk plots were calculated using GraphPad Prism (version 9.0).
(§2) To assess enzymatic activity, BRISC complexes were diluted to concentrations between 1 nM and 50 nM. […] Then, 20-μl enzyme reactions were carried out in 384-well black flat-bottom low-flange plates (Corning, 35373). DUB activity was measured using IQF K63-linked diubiquitin (LifeSensors, DU6303) at 50 nM. Cleaved diubiquitin was monitored by measuring fluorescence intensity (excitation, 544 nm; emission, 575 nm; dichroic mirror, 560 nm). Fluorescence intensity was measured every minute for 30 min at 30 °C. Fluorescence intensity units were plotted against time to generate a linear reaction progress curve, where the initial velocity (V0) corresponds to the gradient of the curve (typically achieved within 15 min). IC50 values were calculated using the GraphPad Prism (version 9.0) built-in dose–response equation for inhibitor concentration versus response (variable slope).

[3] = target: T2, USP2 (Homo sapiens, UniProt O75604); assay: USP2 IQF diubiquitin selectivity assay; format: biochemical; conditions: for Normalised V0: Fig. 1e, USP-2; for USP2, normalised activity (Ext. 1a): two replicate columns
T2 construct: His (N, cleaved yes); host or cells: Escherichia coli BL21(DE3)
T2 sequence (O75604 258-605 limits assumed): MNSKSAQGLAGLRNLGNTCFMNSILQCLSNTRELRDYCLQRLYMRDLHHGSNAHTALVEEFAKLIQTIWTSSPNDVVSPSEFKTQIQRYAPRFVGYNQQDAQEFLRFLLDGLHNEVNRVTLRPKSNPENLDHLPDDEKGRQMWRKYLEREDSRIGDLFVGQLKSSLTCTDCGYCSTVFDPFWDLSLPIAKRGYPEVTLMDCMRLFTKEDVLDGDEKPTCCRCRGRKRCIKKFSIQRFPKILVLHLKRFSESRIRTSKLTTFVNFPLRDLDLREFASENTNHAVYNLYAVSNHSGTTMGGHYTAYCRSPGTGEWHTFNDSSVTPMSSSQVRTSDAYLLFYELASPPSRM
Method: BRISC DUB activity was measured at room temperature using 1 nM BRISC and 500 nM IQF diubiquitin K63 substrate (LifeSensors, DU6303) in the presence of DMSO and compounds at 10 μM (final concentrations). Assays were performed in 384-well black flat-bottom low-flange plates (Corning, 35373) in buffer containing 50 mM HEPES–NaOH pH 7.0, 100 mM NaCl, 1 mg ml^−1 BSA, 1 mM DTT and 0.03% v/v Brij-35. Then, 10 μl of twofold concentrated enzyme stock was dispensed, followed by transfer of 200 nl of compounds (1 mM stock) using a 384-pin tool and a 15-min incubation at room temperature. Then, 10 μl of twofold concentrated substrate stock was added and the reaction was monitored by measuring fluorescence intensity (excitation, 540 nm; emission, 580 nm) after 20-min incubation at room temperature and ~50% of substrate was consumed. Orthogonal assays for verification of H20 and P12 hit compounds using USP2 (100 nM) and trypsin (125 nM) were performed in identical conditions.
as §1, §2

## O=C(NC1CCNCC1)c1nn(C(=O)c2c(Cl)cccc2Cl)cc1NC(=O)c1c(Cl)cccc1Cl [JMS-175-2]
[1]
  BRISC dimers detected by native MS: BRISC dimers with 4:4:4:4 stoichiometry were detected
[2]
  inhibition of AMSH*: did not inhibit
[2]; JMS-175-2 0.02 μM
  Normalised V0: 0.9388 and 1.234 and 1.0263
[2]; JMS-175-2 0.0399999 μM
  Normalised V0: 1.025 and 1.209 and 1.056
[2]; JMS-175-2 0.0599997 μM
  Normalised V0: 0.9933 and 1.1324 and 1.071
[2]; JMS-175-2 0.0799994 μM
  Normalised V0: 0.9897 and 1.213 and 1.205
[2]; JMS-175-2 0.119998 μM
  Normalised V0: 0.9691 and 1.214 and 1.014
[2]; JMS-175-2 0.199996 μM
  Normalised V0: 1.015 and 1.194 and 1.011
[2]; JMS-175-2 0.499975 μM
  Normalised V0: 0.9952 and 1.163 and 1.175
[2]; JMS-175-2 0.799936 μM
  Normalised V0: 1.012 and 1.167
[2]; JMS-175-2 1.25984 μM
  Normalised V0: 0.9861 and 1.185 and 1.256
[2]; JMS-175-2 1.9996 μM
  Normalised V0: 0.9727 and 1.04 and 1.202
[2]; JMS-175-2 3.159 μM
  Normalised V0: 1.015 and 1.159 and 1.047
[2]; JMS-175-2 5.19739 μM
  Normalised V0: 1.314 and 1.221 and 1.023
[2]; JMS-175-2 7.99364 μM
  Normalised V0: 1.059 and 1.183 and 1.085
[2]; JMS-175-2 12.7839 μM
  Normalised V0: 0.9322 and 1.462 and 1.072
[2]; JMS-175-2 19.96 μM
  Normalised V0: 0.9939 and 1.127 and 1.08
[2]; JMS-175-2 31.4999 μM
  Normalised V0: 1.033 and 1.252 and 1.115
[2]; JMS-175-2 50.147 μM
  Normalised V0: 0.9855 and 1.172 and 0.9587
[2]; JMS-175-2 79.7601 μM
  Normalised V0: 0.8988 and 1.1324 and 1.1315
[2]; JMS-175-2 125.99 μM
  Normalised V0: 0.8758 and 1.102 and 0.8516
[2]; JMS-175-2 199.922 μM
  Normalised V0: 0.8346 and 1.096 and 1.031
[3]; JMS-175-2 0.02 μM
  Normalised V0: 1.069 and 1.241 and 0.9432
[3]; JMS-175-2 0.0399999 μM
  Normalised V0: 0.8007 and 1.129 and 1.003
[3]; JMS-175-2 0.0599997 μM
  Normalised V0: 1.048 and 0.9811 and 1.113
[3]; JMS-175-2 0.0799994 μM
  Normalised V0: 0.9033 and 1.198 and 1.261
[3]; JMS-175-2 0.119998 μM
  Normalised V0: 0.9288 and 1.09 and 1.206
[3]; JMS-175-2 0.199996 μM
  Normalised V0: 0.6627 and 1.115 and 1.202
[3]; JMS-175-2 0.499975 μM
  Normalised V0: 0.7837 and 1.098 and 1.253
[3]; JMS-175-2 0.799936 μM
  Normalised V0: 0.8725 and 1 and 1.269
[3]; JMS-175-2 1.25984 μM
  Normalised V0: 0.992 and 1.247
[3]; JMS-175-2 1.9996 μM
  Normalised V0: 0.8222 and 1.018 and 1.206
[3]; JMS-175-2 3.159 μM
  Normalised V0: 1.0183 and 0.9107 and 1.032
[3]; JMS-175-2 5.19739 μM
  Normalised V0: 1.009 and 1.289
[3]; JMS-175-2 7.99364 μM
  Normalised V0: 0.8621 and 1.003 and 1.185
[3]; JMS-175-2 12.7839 μM
  Normalised V0: 0.6092 and 0.9802 and 1.084
[3]; JMS-175-2 19.96 μM
  Normalised V0: 1.301 and 1.171 and 1.043
[3]; JMS-175-2 31.4999 μM
  Normalised V0: 1.058 and 1.049 and 0.9631
[3]; JMS-175-2 50.147 μM
  Normalised V0: 1.16 and 1.045 and 1.064
[3]; JMS-175-2 79.7601 μM
  Normalised V0: 0.9987 and 0.9518 and 1.282
[3]; JMS-175-2 125.99 μM
  Normalised V0: 1.008 and 1.145 and 1.176
[3]; JMS-175-2 199.922 μM
  Normalised V0: 0.9471 and 0.7832 and 0.9905
[3]; log [compound (μM)] 0.1938, listed as H20
  USP2, normalised activity (Ext. 1a): 1.2610 and 1.0496
[3]; log [compound (μM)] 0.4949, listed as H20
  USP2, normalised activity (Ext. 1a): 1.2203 and 1.1061
[3]; log [compound (μM)] 0.7959, listed as H20
  USP2, normalised activity (Ext. 1a): 1.1774 and 1.0526
[3]; log [compound (μM)] 1.0969, listed as H20
  USP2, normalised activity (Ext. 1a): 1.1262 and 1.0278
[3]; log [compound (μM)] 1.3979, listed as H20
  USP2, normalised activity (Ext. 1a): 1.0528 and 0.9672
[3]; log [compound (μM)] 1.6990, listed as H20
  USP2, normalised activity (Ext. 1a): 1.0367 and 0.9078
[3]; log [compound (μM)] 2.0000, listed as H20
  USP2, normalised activity (Ext. 1a): 0.9400 and 0.8456
[3]; log [compound (μM)] 2.3010, listed as H20
  USP2, normalised activity (Ext. 1a): 0.9026 and 0.7165
[3]; log [compound (μM)] -0.1072, listed as H20
  USP2, normalised activity (Ext. 1a): 1.1074 and 1.0499
[3]; log [compound (μM)] -0.4082, listed as H20
  USP2, normalised activity (Ext. 1a): 1.1923 and 1.0651
[3]; log [compound (μM)] -0.7093, listed as H20
  USP2, normalised activity (Ext. 1a): 1.1905 and 1.0735
[3]; log [compound (μM)] -1.7100, normalisation point
  USP2, normalised activity (Ext. 1a): 1.0000
